Assay results taken from patent US5395610A, “Agents for potentiating the effects of antitumor agents and combating multiple drug resistance” (Burroughs-Wellcome Co., priority 1989, dated 1995).

Columns and labels:
[1] = test system: Chinese hamster ovary (CHO) cells, drug resistant C5S32; assay: In vitro cytotoxicity / potentiation of Actinomycin D in Chinese hamster ovary cells, drug resistant C5S32 (MTT); type: cell-based; conditions: 96 h, fraction of Act D alone (1.00)
[2] = as above; type: cell-based; conditions: hamster, cho c5s32 cells, fraction of untreated cultures (1.00), read-out: Cytotoxicity, normalized absorbance, Drug Resistant C5S32, 0 (no Act D); for viability at 96 h, 1 µM: 1 μM potentiating agent alone; for viability at 96 h, 10 µM: 10 μM potentiating agent alone
in vitro = type: cell-based, Chinese hamster; conditions: hamster, cho auxb1 cells
[3] = test system: human KB epidermoid carcinoma cells, wildtype KB 3-1; assay: In vitro cytotoxicity / potentiation of Actinomycin D in human KB epidermoid carcinoma cells, wildtype KB 3-1 (MTT); type: cell-based; conditions: 96 h, fraction of Act D alone
[4] = as above; type: cell-based; conditions: human, kb 3-1 cells, fraction of untreated cultures, read-out: Cytotoxicity, normalized absorbance, Wildtype KB 3-1, 0 (no Act D); for viability at 96 h, 1 µM: 1 μM potentiating agent alone; for viability at 96 h, 10 µM: 10 μM potentiating agent alone
[5] = test system: human KB epidermoid carcinoma cells, drug resistant KB V-1; assay: In vitro cytotoxicity / potentiation of Actinomycin D in human KB epidermoid carcinoma cells, drug resistant KB V-1 (MTT); type: cell-based; conditions: 96 h, fraction of Act D alone
[6] = as above; type: cell-based; conditions: human, kb v-1 cells, fraction of untreated cultures, read-out: Cytotoxicity, normalized absorbance, Drug Resistant KB V-1, 0 (no Act D); for viability at 96 h, 1 µM: 1 μM potentiating agent alone; for viability at 96 h, 10 µM: 10 μM potentiating agent alone
[7] = 1 μM potentiating agent + Act D 0.5 μM
[8] = 10 μM potentiating agent + Act D 0.5 μM
[9] = 1 μM potentiating agent + Act D 0.1 nM
[10] = 10 μM potentiating agent + Act D 0.1 nM
[11] = 1 μM potentiating agent + Act D 20 nM
[12] = 10 μM potentiating agent + Act D 20 nM

**Q.** For Brc1ccc2c(c1)/C(=C\CCN1CCCC1)c1cc(Br)ccc1OC2 [(R), (E)-1-[3-(2,9-dibromo-6,11-dihydrodibenz [b,e]-oxepin-11-ylidene)propyl]pyrrolidine], which “Synergism with Actinomycin D, normalized absorbance, Drug Resistant C5S32, +ACT D” value [1, 7] is on record?
**A.** 0.52

**Q.** What about the “Synergism with Actinomycin D, normalized absorbance, Drug Resistant C5S32, +ACT D” value [1, 8] of the same compound?
**A.** 0.11

**Q.** What about the viability at 96 h, 1 µM [2] of the same compound?
**A.** 50%

**Q.** And the viability at 96 h, 10 µM [2]?
**A.** 11%

**Q.** And the viability at 96 h, 1 µM (in vitro)?
**A.** 99%

**Q.** What about the viability at 96 h, 10 µM (in vitro) of the same compound?
**A.** 95%

**Q.** What about the “Synergism with Actinomycin D, normalized absorbance, Wildtype KB 3-1, +ACT D” value [3, 9] of the same compound?
**A.** 0.84

**Q.** What about the “Synergism with Actinomycin D, normalized absorbance, Wildtype KB 3-1, +ACT D” value [3, 10] of the same compound?
**A.** 0.34

**Q.** And the viability at 96 h, 1 µM [4]?
**A.** 78%

**Q.** And the viability at 96 h, 10 µM [4]?
**A.** 36%

**Q.** What about the “Synergism with Actinomycin D, normalized absorbance, Drug Resistant KB V-1, +ACT D” value [5, 11] of the same compound?
**A.** 0.90

**Q.** And the “Synergism with Actinomycin D, normalized absorbance, Drug Resistant KB V-1, +ACT D” value [5, 12]?
**A.** 0.02

**Q.** And the viability at 96 h, 1 µM [6]?
**A.** 87%

**Q.** And the viability at 96 h, 10 µM [6]?
**A.** 6%

**Q.** Which “Synergism with Actinomycin D, normalized absorbance, Drug Resistant C5S32, +ACT D” value [1, 7] does the source give for CN(C)CC/C=C1\c2ccccc2COc2ccc(F)cc21 [(P), (E)-3-(2-fluoro-6,11-dihydrodibenz [b,e]oxepin-11-ylidine)-N,N-dimethylpropylamine] here?
**A.** 0.70

**Q.** What about the “Synergism with Actinomycin D, normalized absorbance, Drug Resistant C5S32, +ACT D” value [1, 8] of the same compound?
**A.** 0.38

**Q.** And the viability at 96 h, 1 µM [2]?
**A.** 61%

**Q.** And the viability at 96 h, 10 µM [2]?
**A.** 31%

**Q.** What about the viability at 96 h, 1 µM (in vitro) of the same compound?
**A.** 100%

**Q.** And the viability at 96 h, 10 µM (in vitro)?
**A.** 100%

**Q.** And the “Synergism with Actinomycin D, normalized absorbance, Wildtype KB 3-1, +ACT D” value [3, 9]?
**A.** 0.72

**Q.** What about the “Synergism with Actinomycin D, normalized absorbance, Wildtype KB 3-1, +ACT D” value [3, 10] of the same compound?
**A.** 0.71

**Q.** And the viability at 96 h, 1 µM [4]?
**A.** 65%

**Q.** And the viability at 96 h, 10 µM [4]?
**A.** 65%

**Q.** And the “Synergism with Actinomycin D, normalized absorbance, Drug Resistant KB V-1, +ACT D” value [5, 11]?
**A.** 0.72

**Q.** What about the “Synergism with Actinomycin D, normalized absorbance, Drug Resistant KB V-1, +ACT D” value [5, 12] of the same compound?
**A.** 0.58

**Q.** And the viability at 96 h, 1 µM [6]?
**A.** 73%

**Q.** And the viability at 96 h, 10 µM [6]?
**A.** 52%

**Q.** Which results are given for Brc1ccc2c(c1)/C(=C\CN1CCCC1)c1ccccc1CO2 [(F), (Z)-1-[2-(2-Bromo-6,11-dihydrodibenz [b,e]-oxepin-11-ylidene)ethyl]pyrrolidine]?
**A.** Synergism with Actinomycin D, normalized absorbance, Drug Resistant C5S32, +ACT D [1, 7]: 0.68; Synergism with Actinomycin D, normalized absorbance, Drug Resistant C5S32, +ACT D [1, 8]: 0.19; viability at 96 h, 1 µM [2]: 82%; viability at 96 h, 10 µM [2]: 28%; viability at 96 h, 1 µM (in vitro): 100%; viability at 96 h, 10 µM (in vitro): 88%; Synergism with Actinomycin D, normalized absorbance, Wildtype KB 3-1, +ACT D [3, 9]: 0.86; Synergism with Actinomycin D, normalized absorbance, Wildtype KB 3-1, +ACT D [3, 10]: 0.68; viability at 96 h, 1 µM [4]: 84%; viability at 96 h, 10 µM [4]: 78%; Synergism with Actinomycin D, normalized absorbance, Drug Resistant KB V-1, +ACT D [5, 11]: 0.77; Synergism with Actinomycin D, normalized absorbance, Drug Resistant KB V-1, +ACT D [5, 12]: 0.12; viability at 96 h, 1 µM [6]: 80%; viability at 96 h, 10 µM [6]: 59%

**Q.** What does the source list for Brc1ccc2c(c1)/C(=C/CCN1CCCC1)c1ccccc1CO2 [(K), (E)-1-[3-(2-Bromo-6,11-dihydrodibenz [b,e]-oxepin-11-ylidene)propyl]pyrrolidine]?
**A.** Synergism with Actinomycin D, normalized absorbance, Drug Resistant C5S32, +ACT D [1, 7]: 0.79; Synergism with Actinomycin D, normalized absorbance, Drug Resistant C5S32, +ACT D [1, 8]: 0.28; viability at 96 h, 1 µM [2]: 100%; viability at 96 h, 10 µM [2]: 100%; viability at 96 h, 1 µM (in vitro): 83%; viability at 96 h, 10 µM (in vitro): 87%; Synergism with Actinomycin D, normalized absorbance, Wildtype KB 3-1, +ACT D [3, 9]: 0.77; Synergism with Actinomycin D, normalized absorbance, Wildtype KB 3-1, +ACT D [3, 10]: 0.03; viability at 96 h, 1 µM [4]: 85%; viability at 96 h, 10 µM [4]: 100%; Synergism with Actinomycin D, normalized absorbance, Drug Resistant KB V-1, +ACT D [5, 11]: 0.88; Synergism with Actinomycin D, normalized absorbance, Drug Resistant KB V-1, +ACT D [5, 12]: 0.13; viability at 96 h, 1 µM [6]: 86%; viability at 96 h, 10 µM [6]: 8%

**Q.** With CCN(CC)CC/C=C1/c2ccccc2COc2ccc(Br)cc21 [(I), (Z)-3-(2-Bromo-6,11-dihydrodibenz [b,e]oxepin-11-ylidene)-N,N-diethylpropylamine] as the compound, how does the “Synergism with Actinomycin D, normalized absorbance, Drug Resistant C5S32, +ACT D” value [1, 7] read?
**A.** 0.77

**Q.** What about the “Synergism with Actinomycin D, normalized absorbance, Drug Resistant C5S32, +ACT D” value [1, 8] of the same compound?
**A.** 0.36

**Q.** What about the viability at 96 h, 1 µM [2] of the same compound?
**A.** 95%

**Q.** And the viability at 96 h, 10 µM [2]?
**A.** 100%

**Q.** And the viability at 96 h, 1 µM (in vitro)?
**A.** 90%

**Q.** And the viability at 96 h, 10 µM (in vitro)?
**A.** 92%

**Q.** And the “Synergism with Actinomycin D, normalized absorbance, Wildtype KB 3-1, +ACT D” value [3, 9]?
**A.** 0.99

**Q.** And the “Synergism with Actinomycin D, normalized absorbance, Wildtype KB 3-1, +ACT D” value [3, 10]?
**A.** 0.40

**Q.** And the viability at 96 h, 1 µM [4]?
**A.** 99%

**Q.** And the viability at 96 h, 10 µM [4]?
**A.** 30%

**Q.** What about the “Synergism with Actinomycin D, normalized absorbance, Drug Resistant KB V-1, +ACT D” value [5, 11] of the same compound?
**A.** 0.95

**Q.** What about the “Synergism with Actinomycin D, normalized absorbance, Drug Resistant KB V-1, +ACT D” value [5, 12] of the same compound?
**A.** 0.04

**Q.** What about the viability at 96 h, 1 µM [6] of the same compound?
**A.** 98%

**Q.** What about the viability at 96 h, 10 µM [6] of the same compound?
**A.** 34%

**Q.** What does the source list for CN(C)CC/C=C1/c2ccccc2COc2c(Br)cccc21 [(D), (Z)-3-(4-Bromo-6,11-dihydrodibenz [b,e]oxepin-11-ylidene)-N,N-dimethylpropylamine]?
**A.** Synergism with Actinomycin D, normalized absorbance, Drug Resistant C5S32, +ACT D [1, 7]: 0.71; Synergism with Actinomycin D, normalized absorbance, Drug Resistant C5S32, +ACT D [1, 8]: 0.31; viability at 96 h, 1 µM [2]: 89%; viability at 96 h, 10 µM [2]: 34%; viability at 96 h, 1 µM (in vitro): 100%; viability at 96 h, 10 µM (in vitro): 100%; Synergism with Actinomycin D, normalized absorbance, Wildtype KB 3-1, +ACT D [3, 9]: 0.86; Synergism with Actinomycin D, normalized absorbance, Wildtype KB 3-1, +ACT D [3, 10]: 0.65; viability at 96 h, 1 µM [4]: 88%; viability at 96 h, 10 µM [4]: 51%; Synergism with Actinomycin D, normalized absorbance, Drug Resistant KB V-1, +ACT D [5, 11]: 0.78; Synergism with Actinomycin D, normalized absorbance, Drug Resistant KB V-1, +ACT D [5, 12]: 0.01; viability at 96 h, 1 µM [6]: 75%; viability at 96 h, 10 µM [6]: 36%
